We go through 1 molecule from patent US8501752B2, “Methods for treating cancer and other pathological proliferating disorders by inhibiting mitosis using pyrrolo[2,3-d]pyrimidines” (Duquesne University of the Holy Ghost, priority 2005, dated 2013).

One assay concerns SK-MEL-28. As to the kind of experiment: NCI IVCLSP growth inhibition (SRB), SK-MEL-28. In kind it is cell-based, human. Particulars: 48 h drug incubation. As to the method: (§1) FIG. 1 presents nine compounds that were tested using the National Cancer Institute (NCI) 60 human tumor cell lines. The cells lines, which represent leukemia, melanoma, and cancers of the lung, colon, brain, ovary, breast, prostate, and kidney, are listed in Table 1.
(§2) Compounds 1-9 were tested according to the NCI Developmental Therapeutics Program (DTP) In Vitro Cell Line Screening Project (IVCLSP). […] Methodology for testing under the IVCLSP is as follows: The human tumor cell lines of the cancer screening panel are grown in RPMI 1640 medium containing 5% fetal bovine serum and 2 mM L-glutamine. […]
(§3) Following drug addition, the plates are incubated for an additional 48 h at 37° C., 5% CO2, 95% air, and 100% relative humidity. […] Bound stain is subsequently solubilized with 10 mM trizma base, and the absorbance is read on an automated plate reader at a wavelength of 515 nm. […] Using the seven absorbance measurements [time zero, (Tz), control growth, (C), and test growth in the presence of drug at the five concentration levels (Ti)], the percentage growth is calculated at each of the drug concentrations levels. Percentage growth inhibition is calculated as: [(Ti−Tz)/(C−Tz)]×100 for concentrations for which Ti>/=Tz [(Ti−Tz)/Tz]×100 for concentrations for which Ti<Tz.
(§4) Three dose response parameters are calculated for each experimental agent. […]

The test system of another assay is KM12. As to the kind of experiment: NCI IVCLSP growth inhibition (SRB), KM12. Particulars: 48 h drug incubation. In kind it is cell-based, human. The procedure:
as §1, §2, §3, §4

Another assay concerns SF-539. The assay is described as follows: NCI IVCLSP growth inhibition (SRB), SF-539. In kind it is cell-based, human. Conditions: 48 h drug incubation. The procedure: as §1, §2, §3, §4
A further assay deals with EKVX. As to the kind of experiment: NCI IVCLSP growth inhibition (SRB), EKVX. In kind it is cell-based, human. Particulars: 48 h drug incubation. The procedure: as §1, §2, §3, §4
Assay [1] relates to HL-60 human promyelocytic leukemia cells. As to the kind of experiment: Flow cytometric cell cycle phase distribution. It is filed as cell-based. Particulars: 24 hours treatment. The procedure:
Flow cytometric analyses were used to assess the effects of Compound 1 and various antimicrotubule drugs on the cell cycle phase distributions of HL-60 human promyelocytic leukemia cells. The percentage of cells in the G2/M phases were increased approximately 2-fold by treatment of the cells for 24 hours with either TAXOL (paclitaxel), vinblastine, colchicine, or Compound 1.

In the next assay the test system is M14. As to the kind of experiment: NCI IVCLSP growth inhibition (SRB), M14. In kind it is cell-based, human. Particulars: 48 h drug incubation. The procedure: as §1, §2, §3, §4
The test system of another assay is TKIO. As to the kind of experiment: NCI IVCLSP growth inhibition (SRB), TKIO. It is filed as cell-based, human. Particulars: 48 h drug incubation. The procedure: as §1, §2, §3, §4
The subject of the next assay is SW-620. The assay is described as follows: NCI IVCLSP growth inhibition (SRB), SW-620. It is filed as cell-based, human. Conditions: 48 h drug incubation. As to the method: as §1, §2, §3, §4
Another assay deals with SNB-19. The assay is described as follows: NCI IVCLSP growth inhibition (SRB), SNB-19. Conditions: 48 h drug incubation. In kind it is cell-based, human. As to the method:
as §1, §2, §3, §4

The next assay has as its system U251. The assay is described as follows: NCI IVCLSP growth inhibition (SRB), U251. It is filed as cell-based, human. Particulars: 48 h drug incubation. As to the method:
as §1, §2, §3, §4

The subject of another assay is NCI-H23. The assay is described as follows: NCI IVCLSP growth inhibition (SRB), NCI-H23. In kind it is cell-based, human. Conditions: 48 h drug incubation. The procedure: as §1, §2, §3, §4

One may read the GI50 as the concentration giving 50% growth inhibition.

Take `COc1cc(CCc2cn(Cc3ccccc3)c3nc(N)nc(C)c23)cc(OC)c1OC` [Compound 1]: the GI50 in the assay on SK-MEL-28 is above 1000 nM; in the assay on KM12 it was 194 nM; in the assay with SF-539, 74.5 nM; in the assay on EKVX, 424 nM; in the assay on M14, 77 nM; with TKIO it was 961 nM. In addition, the 50% growth inhibitory concentration (GI50) in the assay on SW-620 worked out at 236 nM; in the assay on SNB-19, 273 nM; with U251, 144 nM; with NCI-H23 it was 278 nM. Moreover, the “increase of the percentage of cells in the G2/M phases” value in assay [1] (HL-60) is on record as “approximately 2 fold”. Further, the “cell cycle distribution, G2/M” value in assay [1] (percentage of HL-60 cells) amounted to 9.7 ± 0.4. For the same molecule, in assay [1] (percentage of HL-60 cells), the “cell cycle distribution, G9/G1” value worked out at 80.0 ± 2.4. Further, in assay [1] (percentage of HL-60 cells), the “cell cycle distribution, S” value was 10.3 ± 2.0.
